Experimental data as given in patent US20050176655A1, “Novel macrolide derivatives havaing effect of potentiating antifungal activity” (priority 2002, published 2005).

Key:
Experiment in all cases: Paper disk method, enhancing action for activities of azole antifungal agents
Format in all cases: cell-based
[1] = test system: fluconazole resistant Candida albicans ATCC 64550; conditions: 100 μg/8 mm disk; GYM, miconazole 0.15 μg/ml; 24 hours
Description: (§1) Test organisms used were Candida albicans ATCC 64548, fluconazole resistant Candida albicans ATCC 64550 and Aspergillus niger ATCC 6275. Candida spp. were cultured in Waksman broth (glucose 2.0%, peptone 0.5%, dry yeast 0.3%, meat extract 0.5%, NaCl 0.5% and CaCO3 0.3%, pH 7.0) at 27° C. for 40 hours, then 0.1% thereof was inoculated on GY agar medium (glucose 1.0%, yeast extract 0.5% and agar 0.8%, pH 6.0). Spore suspension 0.2% of Aspergillus niger ATCC 6275 was inoculated on GY agar medium.
(§2) Azole antifungal agents used were miconazole (Sigma Inc., the U.S.) and fluconazole (ICN Pharmaceuticals, Inc., the U.S.), and were added at concentrations without affecting growth on each test organisms follows.
Candida albicans ATCC 64550: miconazole 0.15 μg/ml or fluconazole 30 μg/ml.
(§3) In the above medium, a medium added with miconazole to GY medium (control) is designated as GYM, and a medium added with fluconazole is designated as GYF. Activities were assessed by means of paper disk method (thickness: 8 mm, ADVANTEC MFS INC., Japan). Diameter of inhibition ring is expressed with mm unit after culturing Candida spp. for 24 hours and Aspergillus niger ATCC 6275 for 48 hours. Transparency of the inhibition ring is assessed with 5 degrees of A, B, C, D and E (transparence<A<B<C<D<E<opaque).

[2] = test system: Candida albicans ATCC 64548; conditions: 24 hours; for Inhibition activity (inhibition ring mm) C. albicans ATCC 64548 GYM / Transparency of the inhibition ring C. albicans ATCC 64548 GYM: miconazole 0.03 μg/ml
Description: as §1, §2
Candida albicans ATCC 64548: miconazole 0.03 μg/ml or fluconazole 0.5 μg/ml.
as §3

[3] = test system: Aspergillus niger ATCC 6275; conditions: 48 hours; for Inhibition activity (inhibition ring mm) A. niger ATCC 6275 GYM / Transparency of the inhibition ring A. niger ATCC 6275 GYM: miconazole 0.1 μg/ml; for Inhibition activity (inhibition ring mm) A. niger ATCC 6275 GYF / Transparency of the inhibition ring A. niger ATCC 6275 GYF: fluconazole 10 μg/ml
Description: as §1, §2
Aspergillus niger ATCC 6275: miconazole 0.1 μg/ml or fluconazole 10 μg/ml.
as §3

[4] = 50 μg/8 mm disk, GYF, fluconazole 0.5 μg/ml

| Compound | Inhibition activity (inhibition ring mm) C. albicans ATCC 64550 GYM [1] | Transparency of the inhibition ring C. albicans ATCC 64550 GYM [1] | Inhibition activity (inhibition ring mm) C. albicans ATCC 64548 GYM ([2]; 100 μg/8 mm disk) | Transparency of the inhibition ring C. albicans ATCC 64548 GYM ([2]; 100 μg/8 mm disk) | Inhibition activity (inhibition ring mm) A. niger ATCC 6275 GYM ([3]; 50 μg/8 mm disk) | Transparency of the inhibition ring A. niger ATCC 6275 GYM ([3]; 50 μg/8 mm disk) | Inhibition activity (inhibition ring mm) C. albicans ATCC 64548 GYF [2, 4] | Transparency of the inhibition ring C. albicans ATCC 64548 GYF [2, 4] | Inhibition activity (inhibition ring mm) C. albicans ATCC 64548 GYM ([2]; 50 μg/8 mm disk) | Transparency of the inhibition ring C. albicans ATCC 64548 GYM ([2]; 50 μg/8 mm disk) | Inhibition activity (inhibition ring mm) A. niger ATCC 6275 GYF ([3]; 10 μg/8 mm disk) | Transparency of the inhibition ring A. niger ATCC 6275 GYF ([3]; 10 μg/8 mm disk) | Inhibition activity (inhibition ring mm) A. niger ATCC 6275 GYF ([3]; 50 μg/8 mm disk) | Transparency of the inhibition ring A. niger ATCC 6275 GYF ([3]; 50 μg/8 mm disk) | Inhibition activity (inhibition ring mm) A. niger ATCC 6275 GYM ([3]; 100 μg/8 mm disk) | Transparency of the inhibition ring A. niger ATCC 6275 GYM ([3]; 100 μg/8 mm disk) |
| --- | --- | --- | --- | --- | --- | --- | --- | --- | --- | --- | --- | --- | --- | --- | --- | --- |
| CCC(OC(C)=O)C(C)(O)C1OC(=O)C(C)C(OC2CC(C)(OC)C(OC(C)=O)C(C)O2)C(C)C(OC2OC(C)CC(N(C)C)C2O)C2(C)CC(C)=C(O2)C1C (stereo not shown) [Compound 755, 4″,13-Di-O-acetyl-8,9-Anhydro-pseudo erythromycin A 6,9-hemiketal] | 10 mm | E (Growth of test organism was inhibited 35% or less.) | 17 mm | D (Growth of test organism was inhibited 35% or more and 55% or less.) | 16 mm | E (Growth of test organism was inhibited 35% or less.) |  |  |  |  |  |  |  |  |  |  |
| CCC1OC(=O)C(C)C(OC2CC(C)(OC)C(O)C(C)O2)C(C)C(OC2OC(C)CC(N(C)C)C2O)C(C)(O)CC(C)C(=NOCC=CCNCCN)C(C)C(O)C1(C)O (stereo not shown) [Compound 763, 9(E)-4-(aminoethylamino)-2-butenyloxime-erythromycin A] |  |  |  |  |  |  | 10 mm | D (Growth of test organism was inhibited 35% or more and 55% or less.) | 16 mm | C (Growth of test organism was inhibited 55% or more and 75% or less.) | 12 mm | E (Growth of test organism was inhibited 35% or less.) | 15 mm | E (Growth of test organism was inhibited 35% or less.) |  |  |
| CC[C@H]1OC(=O)[C@H](C)[C@@H](O[C@H]2C[C@@](C)(OC)[C@@H](O)[C@H](C)O2)[C@H](C)[C@@H](O[C@@H]2O[C@H](C)C[C@H](N(C)C/C=C/CO/N=C3\[C@H](C)C[C@@](C)(O)[C@H](O[C@@H]4O[C@H](C)C[C@H](N(C)C)[C@H]4O)[C@@H](C)[C@H](O[C@H]4C[C@@](C)(OC)[C@@H](O)[C@H](C)O4)[C@@H](C)C(=O)O[C@H](CC)[C@@](C)(O)[C@H](O)[C@H]3C)[C@H]2O)[C@](C)(O)C[C@@H](C)C(=O)[C@H](C)[C@@H](O)[C@]1(C)O [Compound 765, 3′-de-N-methyl-3′-N-{4-9(E)oxime-erythro-mycin A}-2(E)-butenyl-erythromycin A] |  |  |  |  |  |  |  |  | 14 mm | E (Growth of test organism was inhibited 35% or less.) | 14 mm | E (Growth of test organism was inhibited 35% or less.) | 21 mm | E (Growth of test organism was inhibited 35% or less.) | 14 mm | E (Growth of test organism was inhibited 35% or less.) |
